Laboratory results from patent US20260130395A1, “Water Dispersible Botanical Compositions” (Aquila Black Limited, priority 2021, published 2026).

Assay: Stability of cannabinoid compounds and Vitamin E components in Beverage 1 (AB White) by LCMSMS
Type: physicochemical
Conditions: for Stability of Plant-Derived Cannabinoid Compounds in AB White, 8° C.: AB White stored at 8° C.; for Stability of Plant-Derived Cannabinoid Compounds in AB White, 21-25° C.: AB White stored at 21-25° C.

CCCCCc1cc2c(c(O)c1C(=O)O)[C@@H]1C=C(C)CC[C@H]1C(C)(C)O2 [D9 THCA, delta-9-tetrahydrocannabinolic acid]
Stability of Plant-Derived Cannabinoid Compounds in AB White, 8° C. (0 days): 0.950 µg/mL
Stability of Plant-Derived Cannabinoid Compounds in AB White, 8° C. (1 days): 0.956 µg/mL
Stability of Plant-Derived Cannabinoid Compounds in AB White, 8° C. (2 days): 0.954 µg/mL
Stability of Plant-Derived Cannabinoid Compounds in AB White, 8° C. (3 days): 0.934 µg/mL
Stability of Plant-Derived Cannabinoid Compounds in AB White, 8° C. (5 days): 0.956 µg/mL
Stability of Plant-Derived Cannabinoid Compounds in AB White, 8° C. (8 days): 0.949 µg/mL
Stability of Plant-Derived Cannabinoid Compounds in AB White, 8° C. (9 days): 0.937 µg/mL
Stability of Plant-Derived Cannabinoid Compounds in AB White, 8° C. (10 days): 0.960 µg/mL
Stability of Plant-Derived Cannabinoid Compounds in AB White, 8° C. (11 days): 0.929 µg/mL
Stability of Plant-Derived Cannabinoid Compounds in AB White, 8° C. (12 days): 0.942 µg/mL
Stability of Plant-Derived Cannabinoid Compounds in AB White, 8° C. (15 days): 0.944 µg/mL
Stability of Plant-Derived Cannabinoid Compounds in AB White, 8° C. (16 days): 0.932 µg/mL
Stability of Plant-Derived Cannabinoid Compounds in AB White, 8° C. (17 days): 0.951 µg/mL
Stability of Plant-Derived Cannabinoid Compounds in AB White, 8° C. (18 days): 0.950 µg/mL
Stability of Plant-Derived Cannabinoid Compounds in AB White, 8° C. (19 days): 0.959 µg/mL
Stability of Plant-Derived Cannabinoid Compounds in AB White, 8° C. (22 days): 0.960 µg/mL
Stability of Plant-Derived Cannabinoid Compounds in AB White, 8° C. (23 days): 0.931 µg/mL
Stability of Plant-Derived Cannabinoid Compounds in AB White, 8° C. (24 days): 0.926 µg/mL
Stability of Plant-Derived Cannabinoid Compounds in AB White, 8° C. (25 days): 0.957 µg/mL
Stability of Plant-Derived Cannabinoid Compounds in AB White, 8° C. (26 days): 0.956 µg/mL
Stability of Plant-Derived Cannabinoid Compounds in AB White, 8° C. (29 days): 0.939 µg/mL
Stability of Plant-Derived Cannabinoid Compounds in AB White, 8° C. (30 days): 0.955 µg/mL
Stability of Plant-Derived Cannabinoid Compounds in AB White, 8° C. (60 days): 0.914 µg/mL
Stability of Plant-Derived Cannabinoid Compounds in AB White, 8° C. (90 days): 0.948 µg/mL
Stability of Plant-Derived Cannabinoid Compounds in AB White, 8° C. (120 days): 0.932 µg/mL
Stability of Plant-Derived Cannabinoid Compounds in AB White, 8° C. (150 days): 0.952 µg/mL
Stability of Plant-Derived Cannabinoid Compounds in AB White, 8° C. (180 days): 0.941 µg/mL
Stability of Plant-Derived Cannabinoid Compounds in AB White, 8° C. (210 days): 0.923 µg/mL
Stability of Plant-Derived Cannabinoid Compounds in AB White, 8° C. (240 days): 0.932 µg/mL
Stability of Plant-Derived Cannabinoid Compounds in AB White, 8° C. (270 days): 0.933 µg/mL
Stability of Plant-Derived Cannabinoid Compounds in AB White, 8° C. (300 days): 0.939 µg/mL
Stability of Plant-Derived Cannabinoid Compounds in AB White, 8° C. (330 days): 0.909 µg/mL
Stability of Plant-Derived Cannabinoid Compounds in AB White, 8° C. (360 days): 0.913 µg/mL
Stability of Plant-Derived Cannabinoid Compounds in AB White, 8° C. (390 days): 0.923 µg/mL
Stability of Plant-Derived Cannabinoid Compounds in AB White, 8° C. (420 days): 0.916 µg/mL
Stability of Plant-Derived Cannabinoid Compounds in AB White, 8° C. (450 days): 0.923 µg/mL
Stability of Plant-Derived Cannabinoid Compounds in AB White, 8° C. (480 days): 0.905 µg/mL
Stability of Plant-Derived Cannabinoid Compounds in AB White, 8° C. (510 days): 0.873 µg/mL
Stability of Plant-Derived Cannabinoid Compounds in AB White, 8° C. (540 days): 0.877 µg/mL
Stability of Plant-Derived Cannabinoid Compounds in AB White, 8° C. (570 days): 0.872 µg/mL
Stability of Plant-Derived Cannabinoid Compounds in AB White, 21-25° C. (0 days): 0.950 µg/mL
Stability of Plant-Derived Cannabinoid Compounds in AB White, 21-25° C. (1 days): 0.960 µg/mL
Stability of Plant-Derived Cannabinoid Compounds in AB White, 21-25° C. (2 days): 0.938 µg/mL
Stability of Plant-Derived Cannabinoid Compounds in AB White, 21-25° C. (3 days): 0.920 µg/mL
Stability of Plant-Derived Cannabinoid Compounds in AB White, 21-25° C. (5 days): 0.958 µg/mL
Stability of Plant-Derived Cannabinoid Compounds in AB White, 21-25° C. (8 days): 0.937 µg/mL
Stability of Plant-Derived Cannabinoid Compounds in AB White, 21-25° C. (9 days): 0.926 µg/mL
Stability of Plant-Derived Cannabinoid Compounds in AB White, 21-25° C. (10 days): 0.935 µg/mL
Stability of Plant-Derived Cannabinoid Compounds in AB White, 21-25° C. (11 days): 0.949 µg/mL
Stability of Plant-Derived Cannabinoid Compounds in AB White, 21-25° C. (12 days): 0.935 µg/mL
Stability of Plant-Derived Cannabinoid Compounds in AB White, 21-25° C. (15 days): 0.948 µg/mL
Stability of Plant-Derived Cannabinoid Compounds in AB White, 21-25° C. (16 days): 0.921 µg/mL
Stability of Plant-Derived Cannabinoid Compounds in AB White, 21-25° C. (17 days): 0.919 µg/mL
Stability of Plant-Derived Cannabinoid Compounds in AB White, 21-25° C. (18 days): 0.928 µg/mL
Stability of Plant-Derived Cannabinoid Compounds in AB White, 21-25° C. (19 days): 0.917 µg/mL
Stability of Plant-Derived Cannabinoid Compounds in AB White, 21-25° C. (22 days): 0.947 µg/mL
Stability of Plant-Derived Cannabinoid Compounds in AB White, 21-25° C. (23 days): 0.924 µg/mL
Stability of Plant-Derived Cannabinoid Compounds in AB White, 21-25° C. (24 days): 0.927 µg/mL
Stability of Plant-Derived Cannabinoid Compounds in AB White, 21-25° C. (25 days): 0.948 µg/mL
Stability of Plant-Derived Cannabinoid Compounds in AB White, 21-25° C. (26 days): 0.921 µg/mL
